Results: patent US12310975B2, “Modulators of BCL6 proteolysis and associated methods of use” (Arvinas Operations, Inc., priority 2019, dated 2025)

Key:
[1] = target: T1, BCL6 (Homo sapiens (Human), UniProt P41182); assay: BCL6 TR-FRET assay (BCL6-Avitag-Biotin / BCoR-Cy5 peptide); type: binding
In short: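 TR-FRET displacement assay: biotinylated His-SUMO-BCL6-Avitag (2 nM) pre-incubated 30 min at room temperature with compound (12-point 3-fold titration), then BCoR-Cy5 peptide (100 nM) and Eu-streptavidin (2 nM) added. Buffer: 50 mM HEPES pH 7.5, 125 mM NaCl, 0.01% Triton X, glutathione or DTT, 0.03% BSA. Read after 2 h.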

[2] = target: T1, BCL6; assay: Immunofluorescence high content imaging of BCL6 degradation in T47D cells; type: cell-based; conditions: for Dmax: T47D
In short: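 T47D cells were treated 3 days at 37 °C with an 11-point 3-fold dilution series (top 0.1 or 1 μM), then fixed, permeabilized and immunostained for BCL6 with Alexa-488 secondary, CellMask and Hoechst. BCL6 signal was imaged at 10×, 4 fields/well, with top-hat smoothing.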

SMILES | IC50 ([1]; read-out: IC50) [nM] | Dmax [2] [%] | EC50 [1] [nM] | IC50 [2] [nM] | IC50 ([1]; class symbols A-D, read-out: IC50 (nM)***) [nM] | DC50 ([2]; class symbols A-D, read-out: EC50 (nM)*) [nM]
CNC(=O)COc1cc2cc(Nc3nc(N4CCC(O[C@H]5C[C@H](COc6ccc7c(c6)C(=O)N(C6CCC(=O)NC6=O)C7=O)N(C)C5)CC4)ncc3Cl)ccc2n(C(C)C)c1=O (stereo partly drawn) [compound 458, 2-[(6-{[5-chloro-2-(4-{[(3S,5R)-5-({[2-(2,6-dioxopiperidin-3-yl)-1,3-dioxo-2,3-dihydro-1H-isoindol-5-yl]oxy}methyl)-1-methylpyrrolidin-3-yl]oxy}piperidin-1-yl)pyrimidin-4-yl]amino}-2-oxo-1-(propan-2-yl)-1,2-dihydroquinolin-3-yl)oxy]-N-methylacetamide] | 50 to 100 | ≥ 70 |  |  |  | 
CNC(=O)COc1cc2cc(Nc3nc(N4CCC(O[C@@H]5C[C@@H](COc6ccc7c(c6)C(=O)N(C6CCC(=O)NC6=O)C7=O)N(C)C5)CC4)ncc3Cl)ccc2n(C(C)C)c1=O (stereo partly drawn) [compound 463, 2-[(6-{[5-chloro-2-(4-{[(3R,5S)-5-({[2-(2,6-dioxopiperidin-3-yl)-1,3-dioxo-2,3-dihydro-1H-isoindol-5-yl]oxy}methyl)-1-methylpyrrolidin-3-yl]oxy}piperidin-1-yl)pyrimidin-4-yl]amino}-2-oxo-1-(propan-2-yl)-1,2-dihydroquinolin-3-yl)oxy]-N-methylacetamide] | 10 to 50 | < 50 |  |  |  | 
CNC(=O)COc1cc2cc(Nc3nc(N4CCN(CC5CCN(c6cccc7c6C(=O)N(C6CCC(=O)NC6=O)C7=O)CC5)CC4)ncc3Cl)ccc2n(CCOC)c1=O (centres unmarked) [compound 454, 2-{[6-({5-chloro-2-[4-({1-[2-(2,6-dioxopiperidin-3-yl)-1,3-dioxo-2,3-dihydro-1H-isoindol-4-yl]piperidin-4-yl}methyl)piperazin-1-yl]pyrimidin-4-yl}amino)-1-(2-methoxyethyl)-2-oxo-1,2-dihydroquinolin-3-yl]oxy}-N-methylacetamide] | < 10 | ≥ 70 |  |  |  | 
Cn1c(=O)n(CCC(C)(C)O)c2cc(Nc3nc(N4CCC(CN5CCN(c6cccc7c6C(=O)N(C6CCC(=O)NC6=O)C7=O)CC5)CC4)ncc3Cl)ccc21 (centres unmarked) [compound 492, 4-(4-{[1-(5-chloro-4-{[3-(3-hydroxy-3-methylbutyl)-1-methyl-2-oxo-2,3-dihydro-1H-1,3-benzodiazol-5-yl]amino}pyrimidin-2-yl)piperidin-4-yl]methyl}piperazin-1-yl)-2-(2,6-dioxopiperidin-3-yl)-2,3-dihydro-1H-isoindole-1,3-dione] | 50 to 100 | 50 to 70 |  |  |  | 
CNC(=O)COc1cc2cc(Nc3nc(N4CCC(O[C@H]5C[C@H](N6CCC(c7ccc8c(c7)C(=O)N(C7CCC(=O)NC7=O)C8=O)CC6)C5)CC4)ncc3Cl)ccc2n(C)c1=O (some centres unmarked) [compound 536, 2-({6-[(5-chloro-2-{4-[(1r,3r)-3-{4-[2-(2,6-dioxopiperidin-3-yl)-1,3-dioxo-2,3-dihydro-1H-isoindol-5-yl]piperidin-1-yl}cyclobutoxy]piperidin-1-yl}pyrimidin-4-yl)amino]-1-methyl-2-oxo-1,2-dihydroquinolin-3-yl}oxy)-N-methylacetamide] | < 10 | ≥ 70 |  |  |  | 
CNC(=O)COc1cc2cc(Nc3nc(N4CCC(CN5CCC6(CCN(c7cccc8c7C(=O)N(C7CCC(=O)NC7=O)C8=O)CC6)C5)CC4)ncc3Cl)ccc2n(C(C)C)c1=O (centres unmarked) [compound 506, 2-{[6-({5-chloro-2-[4-({8-[2-(2,6-dioxopiperidin-3-yl)-1,3-dioxo-2,3-dihydro-1H-isoindol-4-yl]-2,8-diazaspiro[4.5]decan-2-yl}methyl)piperidin-1-yl]pyrimidin-4-yl}amino)-2-oxo-1-(propan-2-yl)-1,2-dihydroquinolin-3-yl]oxy}-N-methylacetamide] | < 10 | 50 to 70 |  |  |  | 
CNC(=O)COc1cc2cc(Nc3nc(N4CCN(C(C)(C)CN5CCN(c6ccc7c(c6)C(=O)N(C6CCC(=O)NC6=O)C7=O)CC5)CC4)ncc3Cl)ccc2n(C)c1=O (centres unmarked) [compound 279, 2-{[6-({5-chloro-2-[4-(1-{4-[2-(2,6-dioxopiperidin-3-yl)-1,3-dioxo-2,3-dihydro-1H-isoindol-5-yl]piperazin-1-yl}-2-methylpropan-2-yl)piperazin-1-yl]pyrimidin-4-yl}amino)-1-methyl-2-oxo-1,2-dihydroquinolin-3-yl]oxy}-N-methylacetamide] |  | 50 to 70 | 10 to 50 | 10 to 50 |  | 
CNC(=O)COc1cc2cc(Nc3nc(N4CCN(CC5CC6(CCN(c7cccc8c7C(=O)N(C7CCC(=O)NC7=O)C8=O)CC6)C5)CC4)ncc3Cl)ccc2n(C(C)C)c1=O (centres unmarked) [compound 517, 2-{[6-({5-chloro-2-[4-({7-[2-(2,6-dioxopiperidin-3-yl)-1,3-dioxo-2,3-dihydro-1H-isoindol-4-yl]-7-azaspiro[3.5]nonan-2-yl}methyl)piperazin-1-yl]pyrimidin-4-yl}amino)-2-oxo-1-(propan-2-yl)-1,2-dihydroquinolin-3-yl]oxy}-N-methylacetamide] | < 10 | ≥ 70 |  |  |  | 
CNC(=O)COc1cc2cc(Nc3nc(N4CCN(C)C(COc5cccc6c5C(=O)N(C5CCC(=O)NC5=O)C6=O)C4)ncc3Cl)ccc2n(C)c1=O (centres unmarked) [compound 231, 2-((6-((5-chloro-2-(3-(((2-(2,6-dioxopiperidin-3-yl)-1,3-dioxoisoindolin-4-yl)oxy)methyl)-4-methylpiperazin-1-yl)pyrimidin-4-yl)amino)-1-methyl-2-oxo-1,2-dihydroquinolin-3-yl)oxy)-N-methylacetamide] |  |  | 50 to 100 | ≥ 100 |  | 
CNC(=O)[C@@H](C)Oc1cc2cc(Nc3nc(N4CCC(CN5CCN(c6ccc7c(c6)C(=O)N([C@@H]6CCC(=O)NC6=O)C7=O)CC5)CC4)ncc3Cl)ccc2n(C)c1=O [compound 212, (R)-2-((6-((5-chloro-2-(4-((4-(2-((R)-2,6-dioxopiperidin-3-yl)-1,3-dioxoisoindolin-5-yl)piperazin-1-yl)methyl)piperidin-1-yl)pyrimidin-4-yl)amino)-1-methyl-2-oxo-1,2-dihydroquinolin-3-yl)oxy)-N-methylpropanamide] |  |  | 10 to 50 | ≥ 100 |  | 
CNC(=O)COc1cc2cc(Nc3nc(N4CCN(C(C)(C)C5CCN(c6ccc7c(c6)CN(C6CCC(=O)NC6=O)C7=O)CC5)CC4)ncc3Cl)ccc2n(C)c1=O (centres unmarked) [compound 270, 2-{[6-({5-chloro-2-[4-(2-{1-[2-(2,6-dioxopiperidin-3-yl)-1-oxo-2,3-dihydro-1H-isoindol-5-yl]piperidin-4-yl}propan-2-yl)piperazin-1-yl]pyrimidin-4-yl}amino)-1-methyl-2-oxo-1,2-dihydroquinolin-3-yl]oxy}-N-methylacetamide] |  | ≥ 70 | 10 to 50 | < 10 |  | 
CNC(=O)COc1cc2cc(Nc3nc(N(C)C)ncc3Cl)ccc2n(CCOc2ccc3c(c2)C(=O)N(C2CCC(=O)NC2=O)C3=O)c1=O (centres unmarked) [compound 470, 2-[(6-{[5-chloro-2-(dimethylamino)pyrimidin-4-yl]amino}-1-(2-{[2-(2,6-dioxopiperidin-3-yl)-1,3-dioxo-2,3-dihydro-1H-isoindol-5-yl]oxy}ethyl)-2-oxo-1,2-dihydroquinolin-3-yl)oxy]-N-methylacetamide] | 10 to 50 | < 50 |  |  |  | 
CNC(=O)COc1cc2cc(Nc3nc(N4CCN(CC5CCN(c6cccc7c6C(=O)N(C6CCC(=O)NC6=O)C7=O)CC5)CC4)ncc3Cl)ccc2n(CCC2COC2)c1=O (centres unmarked) [compound 503, 2-{[6-({5-chloro-2-[4-({1-[2-(2,6-dioxopiperidin-3-yl)-1,3-dioxo-2,3-dihydro-1H-isoindol-4-yl]piperidin-4-yl}methyl)piperazin-1-yl]pyrimidin-4-yl}amino)-1-[2-(oxetan-3-yl)ethyl]-2-oxo-1,2-dihydroquinolin-3-yl]oxy}-N-methylacetamide] | < 10 | ≥ 70 |  |  |  | 
CNC(=O)COc1cc2cc(Nc3nc(N4CCC5(CN(CC6CCN(c7cccc8c7C(=O)N(C7CCC(=O)NC7=O)C8=O)CC6)C5)C4)ncc3Cl)ccc2n(C(C)C)c1=O (centres unmarked) [compound 519, 2-{[6-({5-chloro-2-[2-({1-[2-(2,6-dioxopiperidin-3-yl)-1,3-dioxo-2,3-dihydro-1H-isoindol-4-yl]piperidin-4-yl}methyl)-2,6-diazaspiro[3.4]octan-6-yl]pyrimidin-4-yl}amino)-2-oxo-1-(propan-2-yl)-1,2-dihydroquinolin-3-yl]oxy}-N-methylacetamide] | < 10 | ≥ 70 |  |  |  | 
CCNC(=O)COc1cc2cc(Nc3nc(N4CCC(CN5CCN(c6ccc7c(c6)C(=O)N(C6CCC(=O)NC6=O)C7=O)CC5)CC4)ncc3Cl)ccc2n(C)c1=O (centres unmarked) [compound 198, 2-((6-((5-chloro-2-(4-((4-(2-(2,6-dioxopiperidin-3-yl)-1,3-dioxoisoindolin-5-yl)piperazin-1-yl)methyl)piperidin-1-yl)pyrimidin-4-yl)amino)-1-methyl-2-oxo-1,2-dihydroquinolin-3-yl)oxy)-N-ethylacetamide] |  | 50 to 70 | > 100 | 50 to 100 |  | 
Cn1c(=O)ccc2cc(Nc3nc(N4CCC(CN5CCN(c6ccc7c(c6)C(=O)N(C6CCC(=O)NC6=O)C7=O)CC5)CC4)ncc3Cl)ccc21 (centres unmarked) [compound 150, 5-(4-((1-(5-chloro-4-((1-methyl-2-oxo-1,2-dihydroquinolin-6-yl)amino)pyrimidin-2-yl)piperidin-4-yl)methyl)piperazin-1-yl)-2-(2,6-dioxopiperidin-3-yl)isoindoline-1,3-dione] |  |  |  |  | ≥ 100 | > 100
